Test results as given in US20240190889A1, “NEW CYCLOPENTA-THIENO-DIAZEPINE DERIVATIVES AS GABA A GAMMA1 POSITIVE ALLOSTERIC MODULATORS” (Hoffmann-La Roche Inc., priority 2021, published 2024).
Like-named read-outs stand apart in the source and are kept apart here.

Assays:
[1] = molecular target: human GABAA α1β3γ2 receptor (Homo sapiens (Human), UniProt P14867+P18507); experiment: Radioligand binding assay, competition for [3H]Flumazenil, γ2-containing GABAA subtypes; details: for γ2/γ1 Selectivity Ratio: Ki α1β3γ2 (nM)/Ki α2β2γ1 (nM); for LogSel: Log[Ki α1β3γ2 (nM)/Ki α2β2γ1 (nM)]
Protocol: Membrane Preparation and Binding Assay for γ2-containing GABAA Subtypes
The affinity of compounds at GABAA γ2 subunit-containing receptors was measured by competition for [^3H]Flumazenil (81.1 Ci/mmol; Roche) binding to HEK293F cells expressing human (transiently transfected) receptors of composition α1β3γ2.
Harvested pellets from HEK293F cells expressing the different GABAA γ2 receptor subtypes were resuspended in Mannitol Buffer pH 7,2-7,4 and processed as described above for the cells expressing the GABAA γ1 subunit-containing receptors.
Assays were incubated to equilibrium for 1 hour at 4° C, and harvested onto GF/C uni-filters (Packard) by filtration using a Packard harvester and washing with ice-cold wash buffer (50 mM Tris; pH 7.5). After anhydrousing, filter-retained radioactivity was detected by liquid scintillation counting. Ki values were calculated using Excel-Fit (Microsoft) and are the means of two determinations.

[2] = molecular target: human GABAA α5β2γ1 receptor (Homo sapiens (Human), UniProt P31644+Q8N1C3); experiment: Radioligand binding assay, competition for [3H]RO7239181, γ1-containing GABAA subtypes; details: membranes from HEK293F cells, mean of two determinations
Protocol: Membrane Preparation and Binding Assay for γ1-containing GABAA Subtypes
The affinity of compounds at GABAA γ1 subunit-containing receptors was measured by competition for [^3H]RO7239181 (67.3 Ci/mmol: Roche) binding to membranes from HEK293F cells (ThermoFisher R79007) expressing human (transiently transfected) receptors of composition α5β2γ1, α2β2γ1, α1β2γ1. For better protein expression of the α2 subunit-containing receptors, the 28 amino acid long signal peptide (Metl to Ala28) of the human GABAA α2 subunit was substituted by the 31 amino acid long signal peptide (Met1 to Ser31) of human GABAA α5 subunit.
Harvested pellets from HEK293F cells expressing the different GABAA receptor subtypes were resuspended in Mannitol Buffer pH 7.2-7.4 (Mannitol 0.29 M, Tricthylamine 10 mM. Acetic acid 10 mM. EDTA 1 mM plus protease inhibitors (20 tablets Complete. Roche Diagnostics Cat. No. 05 056 489 001 per liter)), washed two times and then resuspended at 1:10 to 1:15 dilution in the same buffer. Cell disruption was performed by stirring the suspension in a Parr vessel #4637 at 435 psi for 15 minutes, and then the suspensions were centrifuged at 1000×g for 15 minutes at 4° C. (Beckman Avanti J-HC: rotor JS-4.2). The supernatant (S1) was transferred in a 21 Schott flask and the pellet (P1) was resuspended with Mannitol Buffer up to 175 ml. The resuspended pellet was transferred into a 250 ml Corning centrifugal beaker and centrifuged at 1500 ×g for 10 minutes at 4° C. (Beckman Avanti J-HC: rotor JS-4.2). The supernatant (S1) was then transferred in the 21 Schott flask and the pellet was discarded. The supernatants (S1) were centrifuged in 500ml Beckman polypropylene centrifugal beaker at 15 000×g for 30 minutes at 4° C. (Beckman Avanti J-20 XP; rotor JLA-10.500). The pellet (P2) was resuspended with Mannitol Buffer 1:1 and frozen at −80° C. The supernatant (S2) was centrifuged in 100 ml Beckman polypropylene centrifugal tubes at 48000×g for 50 minutes at 4 °C (Beckman Avanti J-20 XP: rotor JA-18). The supernatant (S3) was discarded and the pellet (P3) was resuspended with 1:1 Mannitol Buffer. The P2 and P3 protein concentration was determined with the BIORAD Standard assay method with bovine serum albumin as standard and measured on the NANO-Drop 1000. The membrane suspension was aliquots (500μl per tube) and stored at −80° C. until required.
Membrane homogenates were resuspended and polytronised (Polytron PT1200E Kinematica AG) in Potassium Phosphate 10 mM, KCl 100 mM binding buffer at pH 7.4 to a final assay concentration determined with a previous experiment.
Radioligand binding assays were carried out in a volume of 200 μL (96-well plates) which contained 100 μL of cell membranes. [^3H]RO7239181 at a concentration of 1.5 nM (α5β2γ1) or 20-30 nM (α1β2γ1, α2β2γ1) and the test compound in the range of [0.3-10000]33 10^−9 M. Nonspecific binding was defined by […] (α5β2γ1) and […] RO7239181 and typically represented less than 5% (α5β2γ1) and less than 20% (α1β2γ1, α2β2γ1) of the total binding. Assays were incubated to equilibrium for 1 hour at 4° C. and then, membranes were filtered onto unifilter (96-well white microplate with bonded GF/C filters preincubated 20-50 minutes in 0.3% Polyethylenimine) with a Filtermate 196 harvester (Packard BioScience) and washed 4 times with cold Potassium Phosphate 10 mM pH 7.4. KCl 100 mM binding buffer. After anhydrousing, filter-retained radioactivity was detected by liquid scintillation counting. Ki values were calculated using Excel-Fit (Microsoft) and are the means of two determinations.
Representative test results, obtained by the above described assay measuring binding affinity to HEK293 cells expressing human (h) receptors, are shown in the Table 1.

[3] = HEK293F cell membranes, [3H]Flumazenil 1 nM, mean of two determinations, read-out: Ki h-GABAA α1β3γ2

| Structure (SMILES) | Ki [1] | γ2/γ1 Selectivity Ratio [1] | LogSel [1] | Ki [2] | Ki [1, 3] |
| --- | --- | --- | --- | --- | --- |
| Cc1nnc2n1-c1sc3c(c1C(c1c(F)cccc1F)=N[C@H]2C)C[C@@H](C(F)(F)F)C3 [Example 13, (7S,13R)-9-(2,6-difluorophenyl)-3,7-dimethyl-13-(trifluoromethyl)-16-thia-2,4,5,8-tetrazatetracyclo [8.6.0.02,6.011,15]hexadeca-1(10),3,5,8,11(15)-pentaene] | 705 nM | 43.5 | 1.64 | 5.9 nM | – |
| C[C@@H]1N=C(c2c(F)cccc2F)c2c(sc3c2C[C@@H](C(F)F)C3)-n2nc(C(=O)NCCO)nc21 [Example 18, (7S,13R)-13-(difluoromethyl)-9-(2,6-difluorophenyl)-N-(2-hydroxyethyl)-7-methyl-16-thia-2,3,5,8-tetrazatetracyclo [8.6.0.02,6.011,15]hexadeca-1(10),3,5,8,11(15)-pentaene-4-carboxamide] | – | 107.2 | 2.03 | 2.5 nM | 614 nM |
| C[C@@H]1N=C(c2c(F)cccc2Cl)c2c(sc3c2C[C@@H](C(F)F)C3)-n2c(-c3cccnn3)nnc21 [Example 12, (7S,13R)-9-(2-chloro-6-fluoro-phenyl)-13-(difluoromethyl)-7-methyl-3-pyridazin-3-yl-16-thia-2,4,5,8-tetrazatetracyclo [8.6.0.02,6.011,15]hexadeca-1(10),3,5,8,11(15)-pentaene] | 2360 nM | 176.0 | 2.25 | 3.7 nM | – |
| Fc1cccc(F)c1C1=NCc2nnc(-c3cccnn3)n2-c2sc3c(c21)C[C@@H](C(F)F)C3 [Example 10, (13R)-13-(difluoromethyl)-9-(2,6-difluorophenyl)-3-pyridazin-3-yl-16-thia-2,4,5,8-tetrazatetracyclo [8.6.0.02,6.011,15]hexadeca-1(10),3,5,8,11(15)-pentaene] | 3220 nM | 1090.8 | 3.04 | 3 nM | – |
| Cc1nnc2n1-c1sc3c(c1C(c1c(F)cccc1F)=NC2)C[C@@H](C)C3 [Example 14, (13R)-9-(2,6-difluorophenyl)-3,13-dimethyl-16-thia-2,4,5,8-tetrazatetracyclo [8.6.0.02,6.011,15]hexadeca-1(10),3,5,8,11(15)-pentaene] | 101 nM | 36.2 | 1.56 | 1.6 nM | – |
| Cc1nnc2n1-c1sc3c(c1C(c1c(F)cccc1F)=NC2)C[C@@H](C#N)C3 [Example 2, (13R)-9-(2,6-difluorophenyl)-3-methyl-16-thia-2,4,5,8-tetrazatetracyclo [8.6.0.02,6.011,15]hexadeca-1(10),3,5,8,11(15)-pentaene-13-carbonitrile] | – | 50.7 | 1.71 | 16.3 nM | 2160 nM |
| Cc1nnc2n1-c1sc3c(c1C(c1c(F)cccc1Cl)=N[C@H]2C)C[C@@H](C(F)F)C3 [Example 9, (7S,13R)-9-(2-chloro-6-fluoro-phenyl)-13-(difluoromethyl)-3,7-dimethyl-16-thia-2,4,5,8-tetrazatetracyclo [8.6.0.02,6.011,15]hexadeca-1(10),3,5,8,11(15)-pentaene] | 366 nM | 101.3 | 2.01 | 1.6 nM | – |
| Cc1nc2n(n1)-c1sc3c(c1C(c1c(F)cccc1F)=N[C@H]2C)C[C@H](C(F)F)C3 [Example 17, (7S,13S)-13-(difluoromethyl)-9-(2,6-difluorophenyl)-4,7-dimethyl-16-thia-2,3,5,8-tetrazatetracyclo [8.6.0.02,6.011,15]hexadeca-1(10),3,5,8,11(15)-pentaene] | 6640 nM | 114.8 | 2.06 | 31.6 nM | – |
| Fc1cccc(Cl)c1C1=NCc2nnc(C3CC3)n2-c2sc3c(c21)C[C@@H](C(F)F)C3 [Example 6, (13R)-9-(2-chloro-6-fluoro-phenyl)-3-cyclopropyl-13-(difluoromethyl)-16-thia-2,4,5,8-tetrazatetracyclo [8.6.0.02,6.011,15]hexadeca-1(10),3,5,8,11(15)-pentaene] | 647 nM | 97.7 | 1.99 | 3.4 nM | – |
| Fc1cccc(F)c1C1=NCc2nnc(C3CC3)n2-c2sc3c(c21)C[C@@H](C(F)F)C3 [Example 7, (13R)-3-cyclopropyl-13-(difluoromethyl)-9-(2,6-difluorophenyl)-16-thia-2,4,5,8-tetrazatetracyclo [8.6.0.02,6.011,15]hexadeca-1(10),3,5,8,11(15)-pentaene] | 304 nM | 47.3 | 1.67 | 2.1 nM | – |
| Cc1nnc2n1-c1sc3c(c1C(c1c(F)cccc1F)=NC2)C[C@@H](C(F)F)C3 [Example 3, (13R)-13-(difluoromethyl)-9-(2,6-difluorophenyl)-3-methyl-16-thia-2,4,5,8-tetrazatetracyclo [8.6.0.02,6.011,15]hexadeca-1(10),3,5,8,11(15)-pentaene] | 257 nM | 88.4 | 1.95 | 1.8 nM | – |
| C[C@@H]1N=C(c2c(F)cccc2Cl)c2c(sc3c2C[C@@H](C(F)F)C3)-n2c(C3CC3)nnc21 [Example 11, (7S,13R)-9-(2-chloro-6-fluoro-phenyl)-3-cyclopropyl-13-(difluoromethyl)-7-methyl-16-thia-2,4,5,8-tetrazatetracyclo [8.6.0.02,6.011,15]hexadeca-1(10),3,5,8,11(15)-pentaene] | 1120 nM | 108.6 | 2.04 | 3.4 nM | – |
| C[C@@H]1N=C(c2c(F)cccc2F)c2c(sc3c2C[C@@H](C(F)F)C3)-n2c(C3CC3)nnc21 [Example 8, (7S,13R)-3-cyclopropyl-13-(difluoromethyl)-9-(2,6-difluorophenyl)-7-methyl-16-thia-2,4,5,8-tetrazatetracyclo [8.6.0.02,6.011,15]hexadeca-1(10),3,5,8,11(15)-pentaene] | 455 nM | 99.2 | 2.00 | 1.9 nM | – |
| C[C@@H]1N=C(c2c(F)cccc2F)c2c(sc3c2C[C@@H](C(F)F)C3)-n2nc(C(=O)N3CCS(=O)(=O)CC3)nc21 [Example 19, [(7S,13R)-13-(difluoromethyl)-9-(2,6-difluorophenyl)-7-methyl-16-thia-2,3,5,8-tetrazatetracyclo [8.6.0.02,6.011,15]hexadeca-1(10),3,5,8,11(15)-pentaen-4-yl]-(1,1-dioxo-1,4-thiazinan-4-yl)methanone] | – | 162.3 | 2.21 | 4.6 nM | 873 nM |
